In data set [1] the test system is mouse L1210 leukemia. The experiment in a line: Prolongation of survival time of CDF1 mice inoculated intraperitoneally with L1210 leukemia cells. In kind it is in vivo, mouse (CDF1). Conditions: for inhibitory effects on mouse L1210 leukemia: summary statement in words. As for the experimental part:
Rhodirubin A and B show a marked antitumor activity with low toxicity in experimental animal tests and thus are therapeutically useful in inhibiting the growth of animal tumors. […] For example, CDF1 mice were inoculated intraperitoneally with 1 × 10^6 L1210 cells/mouse and 0.1-0.2 ml. of drug solution then administered intraperitoneally for 10 consecutive days. Observation was carried out for 30 days, and the % of prolongation of survival time to the control mice intraperitoneally administered with physiological saline was as follows: […]

For data set [2], the system named is B. megaterium NRRL-938. The experiment in a line: Minimum inhibitory concentration, broth dilution method. In kind it is cell-based. Conditions: Priestia megaterium, NRRL938. (In general: In broth dilution the organism is exposed to a series of concentrations in liquid medium.)
The subject of data set [3] is Mycobacterium smegmatis ATCC 607. The description is as above. Conditions: Mycolicibacterium smegmatis, ATCC607. In kind it is cell-based.
The nature of data set [4]: in vivo. Conditions: mouse, ip, mice, intraperitoneal injection. The source says:
The LD50 values upon intraperitoneal injection (in mice) of rhodirubin A and B are as follows: […]

Data set [5] deals with Staph. aureus FDA 209P. The experiment in a line: Minimum inhibitory concentration, broth dilution method. Conditions: Staphylococcus aureus, FDA209P. Format: cell-based.
The nature of data set [6]: Toxicity in experimental animal tests (summary statement). The following applies: summary statement in words.
Data set [7] deals with Sarcina lutea ATCC 9341. The experiment in a line: Minimum inhibitory concentration, broth dilution method. Format: cell-based. Conditions: Micrococcus luteus, ATCC9341.
Data set [8] has as its system solid and ascitic forms of malignant tumors in mammals, e.g. mouse leukemia L1210. The experiment in a line: Inhibition of growth of solid and ascitic malignant tumors in mammals (summary statement). In kind it is in vivo.
The subject of data set [9] is Candida albicans IAM 4905. The experiment in a line: Minimum inhibitory concentration, broth dilution method. In kind it is cell-based. The following applies: IAM4905.
In data set [10] the test system is Coryne: bovis. The description is as above. In kind it is cell-based.
Data set [11] relates to B. subtilis ATCC 6633. Described as above. Format: cell-based. The following applies: Bacillus subtilis, ATCC6633.
In data set [12] the test system is Staph. aureus Smith. The description is as above. Format: cell-based. The following applies: Staphylococcus aureus.
For data set [13], the system named is gram-positive bacteria. The experiment in a line: Antimicrobial activity (summary statement). Format: cell-based. Conditions: against gram-positive bacteria.
Data set [14] deals with Ps. fluorescens NIHJB-254. The experiment in a line: Minimum inhibitory concentration, broth dilution method. In kind it is cell-based. The following applies: Pseudomonas fluorescens, NIHJB254.
For data set [15], the system named is Micrococcus flavus. The description is as above. Format: cell-based.
Data set [16] concerns Proteus morganii. The data set is described as above. Format: cell-based. The following applies: Morganella morganii.
Data set [17] has as its system Candida tropicalis IAM 4942. The description is as above. In kind it is cell-based. Conditions: IAM4942.
Data set [18] concerns mammalian tumor cells. The experiment in a line: Cytotoxicity to mammalian tumor cells in culture.
The nature of data set [19]: Solubility.
In data set [20] the test system is B. cereus ATCC 9634. The experiment in a line: Minimum inhibitory concentration, broth dilution method. In kind it is cell-based. Conditions: Bacillus cereus, ATCC9634.
Data set [21] concerns animal tumor systems. Conditions: reported in literature; cited from earlier work.
The mark [22] stands for this setting: in methanol, n-butanol, acetone, ethyl acetate, chloroform, toluene, benzene and dimethylsulfoxide.
The mark [23] stands for this setting: in water, n-hexane and petroleum ether.

≈ marks a conversion by molar mass, not a printed value. Counter-ions that a name gives are not always drawn.

A word on the MIC: it is the lowest concentration found to suppress growth. Read a low MIC as inhibition by little substance. One may read the LD50 as the dose at which mortality reaches 50%.

Turning to `CCC1(O)CC(OC2CC(N(C)C)C(OC3CC(O)C(OC4CCC(O)C(C)O4)C(C)O3)C(C)O2)c2c(cc3c(c2O)C(=O)c2c(O)ccc(O)c2C3=O)C1C(=O)OC` (centres unmarked) [rhodirubin A], in data set [1], the “inhibitory effects on mouse L1210 leukemia” value was “marked inhibitory effects”. For the same compound, the MIC was 0.78 µg/mL (≈ 0.94 µM) in [2]; 6.25 µg/mL (≈ 7.53 µM) in data set [3]; 1.56 µg/mL (≈ 1.88 µM) in [5]; 0.4 µg/mL (≈ 0.482 µM) in [7]; over 100 µg/mL in data set [9]; 0.2 µg/mL (≈ 0.241 µM) in data set [10]. The MIC in data set [11] is 0.78 µg/mL (≈ 0.94 µM); in data set [12], 0.4 µg/mL (≈ 0.482 µM); in data set [14] it was 100 µg/mL (≈ 120 µM); in data set [15] it was 0.2 µg/mL (≈ 0.241 µM); in data set [16], over 100 µg/mL; in data set [17], over 100 µg/mL. This compound also gave an MIC in data set [20] of 0.2 µg/mL (≈ 0.241 µM). The same compound registered an LD50 in data set [4] of 7.5 to 10 mg/kg. In [6], the toxicity result is “low toxicity”. Besides, the “inhibition of growth of malignant tumors” value in [8] is “inhibit the growth of solid and ascitic forms of malignant tumors in mammals”. Also, the antimicrobial activity entry is “possess antimicrobial activity, especially against gram-positive bacteria” in data set [13] and “exhibit antimicrobial activity against gram-positive bacteria” in data set [13] (listed as Rhodirubin A). In data set [18], the cytotoxicity entry is on record as “high cytotoxicity”. Further, the values for the Solubility entry in [19] (in diethyl ether), in data set [19] (setting [22]) and in [19] (setting [23]) were “slightly soluble”, “soluble” and “insoluble”, respectively.
As for `CCC1(O)CC(OC2CC(N(C)C)C(OC3CCC(OC4CCC(O)C(C)O4)C(C)O3)C(C)O2)c2c(cc3c(c2O)C(=O)c2c(O)ccc(O)c2C3=O)C1C(=O)OC` (centres unmarked) [rhodirubin B], in data set [1], the “inhibitory effects on mouse L1210 leukemia” value was “marked inhibitory effects”. Further, the MIC is 1.56 µg/mL (≈ 1.92 µM) in [2]; 3.1 µg/mL (≈ 3.81 µM) in data set [3]; 1.56 µg/mL (≈ 1.92 µM) in data set [5]; 0.78 µg/mL (≈ 0.958 µM) in data set [7]; over 100 µg/mL in data set [9]; 0.4 µg/mL (≈ 0.491 µM) in data set [10]. The minimal inhibitory concentration (MIC) was 1.56 µg/mL (≈ 1.92 µM) in data set [11]; 0.78 µg/mL (≈ 0.958 µM) in [12]; 100 µg/mL (≈ 123 µM) in data set [14]; 0.2 µg/mL (≈ 0.246 µM) in [15]; over 100 µg/mL in data set [16]; over 100 µg/mL in data set [17]. In data set [20], this compound had an MIC of 0.4 µg/mL (≈ 0.491 µM). The compound also displayed an LD50 in data set [4] of 10 to 12.5 mg/kg. Also, in [6], the toxicity result is given as “low toxicity”. Further, the “inhibition of growth of malignant tumors” value in [8] is “inhibit the growth of solid and ascitic forms of malignant tumors in mammals”. For the same compound, the antimicrobial activity result in [13] is “possess antimicrobial activity, especially against gram-positive bacteria”; in data set [13] (listed as Rhodirubin B), “exhibit antimicrobial activity against gram-positive bacteria”. The cytotoxicity result in data set [18] was “high cytotoxicity”. Besides, the figures for the Solubility entry in data set [19] (in diethyl ether), in data set [19] (setting [22]) and in data set [19] (setting [23]) were “slightly soluble”, “soluble” and “insoluble”, respectively.
Take `CC(=O)[C@]1(O)Cc2c(O)c3c(c(O)c2[C@@H](O[C@H]2C[C@H](N)[C@H](O)[C@H](C)O2)C1)C(=O)c1c(O)cccc1C3=O` [carminomycin]: the “activity against several animal tumor systems” value in data set [21] is given as “active against several animal tumor systems”.
Take `CCC1(O)CC(OC2CC(N(C)C)C(OC3CC(O)C(OC4CCC(O)C(C)O4)C(C)O3)C(C)O2)c2c(cc3c(c2O)C(=O)c2c(O)ccc(O)c2C3=O)C1C(=O)OC` (centres unmarked) [rhodirubin A (HC1 salt)]: the “Prolongation of the survival time T/C (%)” value in [1] (ip, 0.6 mg/kg, 720 h) was found to be 102%; in data set [1] (ip, 1.25 mg/kg, 720 h), 117%; in [1] (ip, 2.5 mg/kg, 720 h) it was 167%; in [1] (ip, 5 mg/kg, 720 h) it was 195%; in data set [1] (ip, 8.5 mg/kg, 720 h), 121%; in data set [1] (ip, 10 mg/kg, 720 h) it was 87%.
Regarding `CCC1(O)CC(OC2CC(N(C)C)C(OC3CCC(OC4CCC(O)C(C)O4)C(C)O3)C(C)O2)c2c(cc3c(c2O)C(=O)c2c(O)ccc(O)c2C3=O)C1C(=O)OC` (centres unmarked) [rhodirubin B (HC1 salt)], the “Prolongation of the survival time T/C (%)” value is on record as 107% in data set [1] (0.6 mg./kg./day, i.p., 10 consecutive days, observed 30 days, vs physiological saline controls); 126% in data set [1] (1.25 mg./kg./day, i.p., 10 consecutive days, observed 30 days, vs physiological saline controls); 215% in [1] (2.5 mg./kg./day, i.p., 10 consecutive days, observed 30 days, vs physiological saline controls); 179% in data set [1] (5 mg./kg./day, i.p., 10 consecutive days, observed 30 days, vs physiological saline controls); 160% in data set [1] (8.5 mg./kg./day, i.p., 10 consecutive days, observed 30 days, vs physiological saline controls); 104% in data set [1] (10 mg./kg./day, i.p., 10 consecutive days, observed 30 days, vs physiological saline controls).
